The test concerns the target T1, SAMHD1_114-626 (Homo sapiens, UniProt Q9Y3Z3).
T1 construct: gene SAMHD1; purified recombinant residues 114-626 (HD domain and C-terminus, SAM domain removed); monomer without nucleotides, tetramer with GTP/dTTP
As to the kind of experiment: 1H NMR dTTP hydrolysis rate versus GTP concentration. The format is biochemical. The source says: 1H NMR dTTP hydrolysis rate versus GTP concentration on SAMHD1_114-626 | we determine the EC50^GTP (half-maximal effective concentration) and kcat

T1 sequence (Q9Y3Z3 114-626): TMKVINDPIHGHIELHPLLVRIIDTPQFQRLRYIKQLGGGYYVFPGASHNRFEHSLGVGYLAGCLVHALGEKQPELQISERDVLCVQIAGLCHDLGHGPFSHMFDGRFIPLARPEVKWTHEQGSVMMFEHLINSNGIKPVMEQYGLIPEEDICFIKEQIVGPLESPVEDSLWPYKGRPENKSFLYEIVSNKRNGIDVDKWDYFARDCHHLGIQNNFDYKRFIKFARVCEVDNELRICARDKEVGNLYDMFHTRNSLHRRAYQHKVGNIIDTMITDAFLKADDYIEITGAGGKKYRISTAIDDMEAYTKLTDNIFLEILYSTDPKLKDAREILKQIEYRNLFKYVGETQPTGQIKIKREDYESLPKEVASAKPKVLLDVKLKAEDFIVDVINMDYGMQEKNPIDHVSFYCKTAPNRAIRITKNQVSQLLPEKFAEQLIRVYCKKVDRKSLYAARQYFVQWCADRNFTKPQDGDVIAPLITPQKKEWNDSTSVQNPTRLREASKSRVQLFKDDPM

As for `Nc1nc2c(ncn2[C@@H]2O[C@H](COP(=O)(O)OP(=O)(O)OP(=O)(O)O)[C@@H](O)[C@H]2O)c(=O)[nH]1` [GTP], the EC50 was 1700 nM.

In general, EC50 refers to the midpoint of the concentration-response curve.

For the origin of these results see publication PMC11389391, “Acetylation of SAMHD1 at lysine 580 is crucial for blocking HIV-1 infection” (mBio, 2024).
